Calls of active or inactive are those of the source. Rule as the data show it, for most assays here: actives have a measured EC50 and inactives only a lower limit.
What was measured:
[1] = Trypanosoma cruzi growth suppression in host cells – NIH3T3 host cells, beta-gal luminescence, confirmation (AID 2044); format: functional, cell-based;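 also: intracellular parasites grown in NIH/3T3 mouse fibroblasts as host cells; luminescent beta-galactosidase reporter signal from transgenic T. cruzi replicating inside host cells; inhibitors lower the luminescence signal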
[2] = viability of PTEN-deleted HCT116 cells – cell-based, HCT116 PTEN knockout, dose response (AID 1047); format: functional;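 also: HCT116 colon tumor cells with PTEN knocked out; cells exposed to compound for 60 hours before readout; potency for loss of cell viability measured by luminescence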
[3] = NIH3T3 cell viability loss – ATP luminescence, mouse fibroblasts, counter-screen, dose response (AID 2010); format: functional, cell-based;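 also: cells exposed to compound for about 90 hours before reading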
[4] = viability of HCT116 lacking mutant beta-catenin – cell-based, human colon tumor, dose response (AID 1045); format: functional;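 also: HCT116 colon tumor cells with beta catenin knocked out; cells exposed to compound for 60 hours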
[5] = Luminescence Cell-Based Dose Retest to Confirm Inhibitors of Cancer Stem Cells. [Related pubchem assays (depositor defined):AID2717, AID2721]; format: functional; settings: Homo sapiens
[6] = Luminescence Cell-Based Dose Response HTS to Identify Inhibitors of 5'UTR Stem-Loop Driven Prion Protein mRNA Translation in H4 Neuroglioblastoma Cells. [Related pubchem assays: 1827 (Project Summary), 1813 (Primary HTS)]; format: functional
[7] = luciferase reporter signal suppression in cells – H4 neuroglioma cells, luminescence, dose response (AID 1990); format: functional, cell-based
[8] = alpha-synuclein stem-loop luciferase translation blockers – H4 neuroglioma cells, luminescence, confirmation (AID 1988); format: functional, cell-based
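For AC50 in this document: cells exposed to compound for roughly 70 hours or longer before luminescence read.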

| SMILES | EC50 [2] | EC50 [4] | EC50 [6] | EC50 [7] | EC50 [8] | other results |
| --- | --- | --- | --- | --- | --- | --- |
| CC(C)(C)c1ccc(/C=C/C(=O)c2ccc(NC3=NCCCS3)cc2)cc1 | 6.9 µM (active) | 4.92 µM (active) |  |  |  | EC50 [1]: 2.08 µM (active); EC50 [3]: > 60 µM (not active); AC50 [5]: 2.63 µM (active) |
| Cc1ccc2[nH]c(SCC3CCCCO3)nc2c1 (configuration not stated) |  |  | > 60 µM (inconclusive) |  |  |  |
| CCOc1ccc(NC(=O)c2cn(CC(C)C)c(=O)c3c2c2ccccc2n3C)cc1 | 10 µM (active) | 13.4 µM (active) |  |  |  |  |
| CC(C)Nc1nc(N=C(N)S)nc(NC(C)C)n1 |  |  | > 120 µM (not active) | > 120 µM (not active) | > 120 µM (not active) |  |
| CCOc1cc(NC(=O)c2ccccc2C)c(OCC)cc1NC(=O)C1=Cc2ccccc2OC1 |  |  | 18.7 µM (active) | > 120 µM (not active) | 9.61 µM (active) |  |
| COc1ccc(F)cc1CN1CCN(c2ncnc3scc(-c4ccccc4)c23)CC1 |  |  | 23.9 µM (active) | 15.8 µM (active) | 15.6 µM (active) |  |
| Cc1ccc(S(=O)(=O)N2CCOC23CCN(C(=O)c2ccc(Cl)cc2Cl)CC3)cc1 |  |  | 17.7 µM (active) | > 120 µM (not active) | 13.8 µM (active) |  |
| O=C(Nc1ccc(NC(=O)c2sc3ccccc3c2Cl)cc1)c1ccco1 | 9.27 µM (active) | 9.19 µM (active) |  |  |  |  |

— ChEMBL document CHEMBL1201862, “PubChem BioAssay data set” (2004)
